Results reported in patent publication US6416737B1, “Increasing bone strength with selected bisphosphonates” (Board of Trustees of the University of Arkansas, priority 1998, dated 2002).
Like-named read-outs stand apart in the source and are kept apart here. Marks after values point to notes of the source that are not given here. Ends that are not written are not given here.

Tests used:
[1] = test system: osteoblastic cells and osteocytic cells; assay: Anti-apoptotic effects of estrogens on osteoblastic and osteocytic cells in vitro; type: cell-based
[2] = test system: ERK1/2; assay: ERK1/2 phosphorylation in MLO-Y4 cells by Western blot; type: cell-based, murine; details: for effect on bisphosphonate-induced phosphorylation of ERKs: 50 μM PD98059 or 1 μM UO126 pretreatment, 10^−7 M bisphosphonate 2 min
Description: Monolayers were washed with cold 20 mM Tris-HCl (pH 7.5), 150 mM NaCl, 1 mM sodium orthovanadate and lysed in the lysis buffer mentioned above. Insoluble material was pelleted in a microcentrifuge at 14,000×rpm for 10 mn. […] Proteins (10 μg) were separated on 7.5% SDS-polyacrylamide gels and electrotransferred to a polyvinylidene difluoride membrane. Immunoblotting was performed using a mouse monoclonal antibody recognizing tyrosine phosphorylated ERK1/2, or a rabbit polyclonal antibody recognizing total ERK1/2, followed by incubation with either an antimouse or an antirabbit antibody conjugated with horseradish peroxidase. Blots were developed using Chemiluminescence according to the manufacturer's recommendations. Quantitation of the intensity of the bands in the autoradiograms was performed using a scanner (Microtek Lab., Redondo Beach, Calif.).

[3] = test system: MLO-Y4 osteocytic cells; details: for effect on the prevention of MLO-Y4 cell apoptosis by sCT / effect on the anti-apoptotic effect of alendronate, IG-9402 and etidronate: inhibitor 30 min, 10^−6 M dexamethasone 6 h; for effect on the prevention of MLO-Y4 cell apoptosis by sCT: 5 ng/ml sCT 1 h; for effect on the anti-apoptotic effect of alendronate, IG-9402 and etidronate: 10^−7 M bisphosphonate 1 h; for percentage of cells stained with trypan blue (induction of apoptosis): MLO-Y4, 6 h, dexamethasone 10^−6 M, etoposide 50 μg/ml, TNF-α 1 nM; for inhibition of glucocorticoid-induced apoptosis: then dexamethasone 10^−6 M for 6 h
Description: The murine long bone-derived osteocytic cell line MLO-Y4 was provided by Dr. Lynda Bonewald (University of Texas Health Center at San Antonio, Tex.). Cells were cultured in phenol red-free αMEM supplemented with 5% FBS, 5% bovine calf serum, 100 U/ml penicillin and 100 μg/ml streptomycin. Cells were plated at 1-2×10^4 cells/cm^2 on collagen type I coated plates, as described previously (Kato, et al., 1997. J. Bone Miner. Res. 12:2014-2023). Murine calvaria cells were obtained from neonatal (3- to 6-day old) C57BL/6J mice by controlled digestion with collagenase, as previously described (Bellido, et al., 1997. Endocrinology 138:3666-3676). After isolation, cells were cultured in 10% FBS at 1-2×10^4 cells/cm^2 until 90-95% confluence. Subsequently, cells were harvested and frozen for later use. UMR-106-06 cells were cultured in phenol red-free MEM supplemented with 10% FBS, 1% non-essential aminoacids, 100 U/ml penicillin, and 100 μg/ml streptomycin (Sakagami, et al., Manolagas. 1993. J. Bone Miner. Res. 8:811-816).
Nonadherent cells were combined with adherent cells released from the culture dish using trypsin-EDTA, resuspended in medium containing serum, and collected by centrifugation. […] At least 100 cells per condition were counted.
(§1) MLO-Y4 osteocytic cells and calvaria osteoblastic cells were treated for 1 hour in the absence or presence of different BPs or sCT. Subsequently, dexamethasone, etoposide or TNF-α were added to obtain final concentrations of 10^−6 M, […], or 1 nM, respectively, and cells were incubated for additional 6 h. The effect of PD98059 (50 μM) or UO126 (1 μM) was evaluated by pretreating the cells with the inhibitors for 30 min before adding the BPs or sCT. In the experiment using the membrane permeable caspase inhibitor DEVD, cells were cultured for 1 hour with 50 nM DEVD-CHO and subsequently the pro-apoptotic agents were added to reach the final concentrations indicated above. […] At least 500 cells from fields selected by systematic random sampling were examined for each experimental condition. […] The TUNEL reaction was performed according to the manufacturer's instructions, using 0.15% CuSO4 for color enhancement. Negative controls were made by omitting the transferase from the reaction. Cells presenting brown nuclear staining were considered positive. More than 500 cells per condition were analyzed. Apoptosis of parental MLO-Y4 or calvaria cells was quantified by trypan blue staining (Jilka, et al., 1998. J. Bone Miner. Res. 13:793-802). Nonadherent cells were combined with adherent cells released from the culture dish using trypsin-EDTA, resuspended in medium containing serum, and collected by centrifugation. […] At least 100 cells per condition were counted.
MLO-Y4 cells were incubated for 1 h in vehicle or 50 nM DEVD-CHO. Subsequently, etoposide, TNF-α, or dexamethasone (Dex) were added at final concentrations of 50 μg/ml, 1 nM, or 10^−6 M, respectively, and cells were incubated for additional 6 h. Dead cells were enumerated by trypan blue uptake.
The percentage of dead cells was determined by trypan blue uptake, as in Methods and Materials. Bars represent the mean ±S.D. of three independent measurements.
Subsequently, etoposide, TNF-α, or dexarnethasone were added to reach final concentrations of 50 μg/ml, 1 nM, or 10^−6 M, respectively, and cells were cultured for 6 h, as in FIG. 1. The percentage of dead cells was determined by trypan blue uptake. Bars represent the mean ±S.D. of three independent measurements. Data were analyzed by two-way ANOVA.

[4] = test system: osteoblastic cells derived from murine calvaria; assay: Apoptosis of osteoblastic cells derived from murine calvaria by trypan blue uptake; type: cell-based; details: 6 h; for induction of apoptosis of osteoblastic cells: etoposide 50 μg/ml, TNF-α, dexamethasone 10^−6 M
[5] = test system: osteoclast; details: cited from earlier work
[6] = test system: MLO-Y4 cells stably transduced with GFP; assay: Apoptosis by nuclear morphology of MLO-Y4 cells transduced with nuclear GFP; type: cell-based, murine; details: absence of dexamethasone; 10^−7 M
Description: Supernatants containing retroviral particles were collected 24-48 h after transfection, and used immediately to infect cell cultures. […] Subsequently, cells were exposed to the supernatants containing the viral particles once more before being trypsinized and plated at low density.
Cells presenting brown nuclear staining were considered positive. More than 500 cells per condition were analyzed. […] At least 100 cells per condition were counted.

[7] = test system: osteocytic MLO-Y4 cells; assay: TUNEL reaction in MLO-Y4 cells; type: cell-based, murine; details: 10^−7 M alendronate 1 h and/or 10^−6 M dexamethasone 6 h
Description: as §1

[8] = test system: osteocyte and osteoblast apoptosis in murine vertebral cancellous bone; assay: Murine model of glucocorticoid excess: TUNEL in vertebral bone sections and spinal BMD by DEXA; type: in vivo, Male Swiss Webster mice; details: prednisolone 2.1 mg/kg/day pellets, alendronate 0.75 mg/kg/d s.c., 56 days, mean ±SD
Description: To adjust for the difference in the metabolic rate in mice compared to that in humans, the daily glucocorticoid dose was divided by the metabolic weight, i.e. the weight in kg to the 3/4 power (Borchard, et al., 1992. Drug dosage in laboratory animals: a handbook. CRC Press, Inc., Boca Raton, Fla. 514 pp.; Kleiber, M. 1961. The fire of life: an introduction to animal energetics. New York). […] One control group received saline injections with placebo pellet implantation while another group received saline injections plus prednisolone pellets. Dual-energy X-ray absorptiometry (DEXA) was used to determine spinal bone mineral density (spinal BMD) at the end of the 56-day experiment, as previously described (Weinstein et al., 1998. J. Clin. Invest. 102:274-282).
Sections of vertebral bone (L1 to L5) were mounted on silane-coated glass slides (Scientific Device Lab, Inc., Des Plains, Ill.), deplasticized and incubated in 10 mM citrate buffer, pH 7.6, in a microwave oven at 98° C. for 5 minutes (Jilka, et al., 1998. J. Bone Miner. Res. 13:793-802). Slides were then incubated with 0.5% pepsin for 30 minutes at 37° C. Apoptotic cells were detected by the TUNEL reaction as described above using 0.15% CuSO4 for color enhancement of the diaminobenzidine in sections counterstained with 1% methyl green. The TUNEL reaction is noted within cell nuclei and the cells whose nuclei were clearly brown from the streptavidin-horse radish peroxidase conjugate instead of blue-green from the methyl green were interpreted as positive. Plastic-embledded sections of weaned rat mammary tissue were used as a positive control. Negative controls were made by omitting the transferase from the TUNEL reaction. Morphological changes characteristic of apoptosis were carefully examined to minimize ambiguity regarding the interpretation of results. […] Osteocytes were identified inside lacunae in mineralized bone (FIG. 11A). Osteoblasts were identified as cuboidal cells lining the osteoid-covered trabecular perimeter (FIG. 11B).

C[C@]12CC[C@@H]3c4ccc(O)cc4CC[C@H]3[C@@H]1CC[C@H]2O [17α-estradiol]
anti-apoptotic effects on osteoblastic cells in vitro and osteocytic cells [1]: potent anti-apoptotic effects

C[C@]12CC[C@@H]3c4ccc(O)cc4CC[C@H]3[C@@H]1CC[C@@H]2O [17β-estradiol]
anti-apoptotic effects on osteoblastic cells in vitro and osteocytic cells [1]: potent anti-apoptotic effects

C[C@]12CC[C@@H]3c4ccc(O)cc4C[C@@H](CCCCCCCCC[S+]([O-])CCCC(F)(F)C(F)(F)F)[C@H]3[C@@H]1CC[C@@H]2O (some centres unmarked) [ICI 182780]
effect on the anti-apoptotic effects of the estrogen compounds [1]: diminished

CN(C)CCC(N)(P(=O)(O)O)P(=O)(O)O [IG-9402, 1-amino-3-(N,N-dimethylamino)-propyliden-1,1-bisphosphonic acid]
earliest time at which increased ERK phosphorylation was observed ([2]; 10^−7 M): 0.5 min
phosphorylation of ERK 1 and 2 ([2]; 10^−7 M): rapid and transient increase
prevention of apoptosis induced by etoposide or TNF-α ([3]; 10^−7 M, 1 h pretreatment, 6 h): prevented apoptosis
cell viability in the absence of pro-apoptotic stimuli ([3]; 10^−10 to 10^−3 M): did not affect cell viability
inhibitory effect on glucocorticoid-induced apoptosis at high concentrations ([3]; concentrations higher than 10^−6 M): persisted at high concentrations
inhibition of apoptosis of osteoblastic cells induced by dexamethasone, TNF-α and etoposide ([4]; 10^−7 M, 1 h pretreatment): inhibited apoptosis
antiresorptive activity / effect on osteoclast [5]: lacks anti-resorptive activity
potency ratio to affect the osteoclast, relative to pamidronate [5]: ⅙
antiresorptive activity / effect on osteoclast ([5]; listed as IG9204): do not block osteoclast activity at all
antiresorptive activity / effect on osteoclast ([5]; listed as IG9402): devoid of any antiresorptive activity
proportion of cells exhibiting chromatin condensation and/or nuclear fragmentation versus untreated [6]: no significant differences

COc1cccc(-c2cc(=O)c3ccccc3o2)c1N [PD98059]
effect on bisphosphonate-induced phosphorylation of ERKs [2]: abolished
effect on the prevention of MLO-Y4 cell apoptosis by sCT [3]: abolished
effect on the anti-apoptotic effect of alendronate, IG-9402 and etidronate [3]: abrogated the anti-apoptotic effect

N#CC(=C(/N)Sc1ccccc1N)/C(C#N)=C(\N)Sc1ccccc1N [U0126]
effect on bisphosphonate-induced phosphorylation of ERKs [2]: abolished
effect on the prevention of MLO-Y4 cell apoptosis by sCT [3]: abolished
effect on the anti-apoptotic effect of alendronate, IG-9402 and etidronate [3]: abrogated the anti-apoptotic effect

C[C@@H]1C[C@H]2[C@@H]3CCC4=CC(=O)C=C[C@]4(C)[C@@]3(F)[C@@H](O)C[C@]2(C)[C@@]1(O)C(=O)CO [dexamethasone]
concentrations giving pro-apoptotic effects ([3]; MLO-Y4 cells): 10^−7-10^−5 M
% of TUNEL positive cells [7]: 11.87* %
Number of TUNEL positive cells [7]: 66
number of TUNEL negative cells [7]: 490

C[C@@]12CCC[C@H]1[C@@H]1CCc3cc(O)ccc3[C@H]1CC2 [estratriene-3-ol]
anti-apoptotic effects on osteoblastic cells in vitro and osteocytic cells [1]: potent anti-apoptotic effects

COc1cc([C@@H]2c3cc4c(cc3[C@@H](O[C@@H]3O[C@@H]5CO[C@@H](C)O[C@H]5[C@H](O)[C@H]3O)[C@H]3COC(=O)[C@H]23)OCO4)cc(OC)c1O [etoposide]
percentage of cells stained with trypan blue (induction of apoptosis) [3]: A similar effect was obtained
induction of apoptosis of osteoblastic cells [4]: induced apoptosis

CN(C)CCC(O)(P(=O)(O)O)P(=O)(O)O [olpadronate]
inhibition of glucocorticoid-induced apoptosis ([3]; 1 h pretreatment): Comparable responses
antiresorptive activity / effect on osteoclast [5]: effective inhibitor of the osteoclast and of bone resorption
proportion of cells exhibiting chromatin condensation and/or nuclear fragmentation versus untreated [6]: no significant differences

NCCC(O)(P(=O)(O)O)P(=O)(O)O [pamidronate]
inhibition of glucocorticoid-induced apoptosis ([3]; 1 h pretreatment): Comparable responses
proportion of cells exhibiting chromatin condensation and/or nuclear fragmentation versus untreated [6]: no significant differences

C[C@]12C=CC(=O)C=C1CC[C@@H]1[C@@H]2[C@@H](O)C[C@@]2(C)[C@H]1CC[C@]2(O)C(=O)CO [prednisolone]
Spinal BMD (% change) ([8]; DEXA): −12.48 ± 3.77 % change
Apoptotic osteoblasts (%) ([8]; vertebral cancellous bone): 19.79 ± 5.17 %
Apoptotic osteocytes (%) ([8]; vertebral cancellous bone): 2.37 ± 0.87%

Asp-Glu-Val-Asp-aldehide (DEVD-aldehyde) [DEVD-CHO]
prevention of the increase in cell membrane permeability detected by trypan blue ([3]; 50 nM DEVD-CHO 1 h before pro-apoptotic agents): prevented

B1: TNF-α: Recombinant murine TNF-α, an activator of death receptors (protein, UniProt P06804 80-235, looked up)
Tumor necrosis factor, …: LRSSSQNSSDKPVAHVVANHQVEEQLEWLSQRANALLANGMDLKDNQLVVPADGLYLVYSQVLFKGQGCPDYVLLTHTVSRFAISYQEKVNLLSAVKSPCPKDTPEGAELKPWYEPIYLGGVFQLEKGDQLSAEVNLPKYLDFAESGQVYFGVIAL
modifications: Tumor necrosis factor, soluble form
percentage of cells stained with trypan blue (induction of apoptosis) [3]: A similar effect was obtained
induction of apoptosis of osteoblastic cells [4]: induced apoptosis
